# Laboratory results as given in patent publication US20050209157A1, “Short bioactive peptides and methods for their use” (priority 2001, published 2005).
# Read-outs that look alike come from different tables or passages of the source. No end group written: not given here.
# Tests used:
# P. aeruginosa H374 = type: cell-based, Pseudomonas aeruginosa; details: for MIC Cm-comb.: MIC of chloramphenicol with peptide at ¼ MIC; for MIC Nal-comb.: MIC of nalidixic acid with peptide at ¼ MIC; for FIC Index: 0.5 or less = synergy
# Method in brief: (§1)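 Efflux-mutant strains were tested with two-fold serial dilutions of chloramphenicol or nalidixic acid, alone and with peptide held at ¼ of its own MIC.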
# P. aeruginosa H774 = type: cell-based, Pseudomonas aeruginosa; details: P. aeruginosa H744; nalidixic acid + peptide at ¼ MIC; 0.5 or less = synergy
# Method in brief: as §1
# P. aeruginosa = type: cell-based, Pseudomonas aeruginosa; details: P. aeruginosa H744; MIC of nalidixic acid with peptide at ¼ MIC
# Method in brief: as §1
# Pseudomonas aeruginosa = assay: Serum inactivation of peptides, serum MIC; type: cell-based; details: for MIC 30 min treatment: sheep serum 37° C. 30 minutes; for MIC 2 hr treatment: sheep serum 37° C. 2 hours
# Method: Subsequently, the serum MICs against Pseudomonas aeruginosa were conducted to determine extent of serum inactivation of the peptides.
# [1] = Solubility of peptides in sheep serum; type: physicochemical
# cancer cell lines = assay: Anti-cancer assays, MTT, summary over the cancer cell lines; type: cell-based; details: X = preferred
# [2] = tested on: human leukocyte (WBC) cells; assay: Stimulation and proliferation of leukocytes, Alamar Blue; type: cell-based; details: 48 hours
# [3] = tested on: human fibroblast cells (WI38); assay: Stimulation and proliferation of fibroblasts, CyQuant; type: cell-based; details: for Peptide treated cell activity Stimulation relative to control: 48 hrs, 2.0% FBS
# Method: Procedure: Different cell lines were maintained with different medium according to the ATCC. […] The cell suspension was centrifuged for 10 minutes at 100 rpm. The supernatant was removed and discarded without disturbing the cell pellet. A concentrated cell suspension was prepared in 1.0 ml of medium to obtain a density of about 10^5 to 10^6 cells/ml. The actual cell density was determined by counting the cells using a hemocytometer with the Trypan Blue method. Cell numbers were adjusted to obtain equal number of cells per 200 μl volume. Cells were plated with 0% FBS, 2% FBS, 3% FBS and 5% FBS. The plates were incubated at 37° C. for a time sufficient to allow the cells to attach. For long-term proliferation studies, 100 μl of medium was removed from each well each day and replaced with fresh medium.
# At the desired time, the medium was removed from the adherent cells in a 96 well plate. These cells were already treated with test agents. The cells were frozen in the plate at −70° C. for 30 minutes. The cells were thawed at room temperature. CyQuant GR dry/Cell Lysis Buffer (200 μl) was added to each sample cell. The cells were incubated at room temperature for 15 minutes while protected from the light. Fluorescence was measured using fmax at 485-538 nm.
# The above CyQuant protocol was used to examine possible peptide stimulation and/or proliferation of fibroblasts. […] This is shown by the addition of Fetal Bovine Serum (FBS) to the medium. […] Control cells and peptide treated cells are with medium and FBS as indicated.
# in vitro [4] = type: cell-based, human; details: human, human red blood cells
# [5] = tested on: human red blood cells (RBC); assay: in vitro; type: cell-based; details: human red blood cells
# fungal = assay: Presently preferred antifungal peptides, selected from the MIC/MBC data; type: cell-based; details: X = preferred
# Excerpt: The peptide's “length” is the number of amino acid residues in the sequence.
# in vitro [6] = details: human, WI38 normal lung fibroblast cells
# [7] = tested on: Escherichia coli ATCC 25922; assay: Antimicrobial assay I, modified protocol (tryptic soy broth), MBC; details: minimum bactericidal concentration, Table 4
# [8] = tested on: Pseudomonas aeruginosa ATCC 27853; assay: as above; details: minimum bactericidal concentration, Table 4
# [9] = tested on: Stapholococcus aureus ATCC 25923; assay: as above; details: minimum bactericidal concentration, Table 4
# [10] = tested on: Candida albicans ATCC 10231; assay: Antimicrobial assay I, modified protocol (tryptic soy broth), MFC; details: minimum fungicidal concentration, Table 4
# Method: The preparation of all media, stock solutions, and dilutions took place in a laminar flow hood to prevent contamination. Bacterial cells were freshly grown on antibiotic medium 2 agar slants (pH 7.0 at 25° C.). Bacteria were suspended and diluted in antibiotic medium 3 to about 10^4 cfu/ml and used as the inoculum. Sample solutions (100 μl/well) were added to plates according to the plate layout. Inoculum (100 μl/well) was added to achieve a final concentration of 5×10^3 cfu/ml. Negative controls received 100 μl saline and 100 μl growth medium. Positive controls received 100 μl saline and 100 μl inoculum. Bacterial plates were incubated at 37° C. for 24 hours.
# However, the data for Table 4 were obtained with a modified protocol wherein the medium was tryptic soy broth, inocolum strength was approximately 10^4 CFU per ml, and values determined were minimum bactericidal concentrations (MBC) or minimum fungicidal concentrations (MFC).
# MBC or MFC values are in μg/mL. E. coli is Escherichia coli ATCC accession number 25922; P. aerug is Pseudomonas aeruginosa ATCC accession number 27853, S. aur. is Stapholococcus aureus ATCC accession number 25923; Candida is Candida albicans ATCC accession number 10231.
# [11] = Synergy of Shiva-1 and lysozyme, percent viability; type: cell-based, Pseudomonas aeruginosa; details: Pseudomonas aeruginosa
# Method: The percent viability of Pseudomonas aeruginosa was determined relative to blank controls.
# [12] = Synergy of Shiva-1 and lysozyme, percent viability; type: cell-based, Staphylococcus intermedius
# Method: (§2) The percent viability of gram positive S. intermedius 19930, S. intermedius 20034, and S. aureus was determined relative to blank controls.
# [13] = Synergy of Shiva-1 and lysozyme, percent viability; type: cell-based, Staphylococcus aureus; details: S. aureus
# Method: as §2
# BMKC = assay: Anti-cancer assay, MTT, LD50; type: cell-based; details: BMKC cloned melanoma line, 24 hours with peptide
# Excerpt: (§3) Numbers are LD50 values (μg/mL).
# H1299 = assay: Anti-cancer assay, MTT, LD50; type: cell-based; details: 24 hours with peptide, lung large cell carcinoma
# Excerpt: as §3
# HeLaS3 = assay: Anti-cancer assay, MTT, LD50; type: cell-based; details: 24 hours with peptide, cervical carcinoma
# Excerpt: as §3
# MCF7 = assay: Anti-cancer assay, MTT, LD50; type: cell-based; details: MCF7 breast adenocarcinoma line, MTT, 24 hours with peptide
# Excerpt: as §3
# PC3 = assay: Anti-cancer assay, MTT, LD50; type: cell-based; details: 24 hours with peptide, prostate adenocarcinoma
# Excerpt: as §3
# SW480 = assay: Anti-cancer assay, MTT, LD50; type: cell-based; details: SW480 colon adenocarcinoma line, 24 hours with peptide
# Excerpt: as §3
# WI38 = details: MTT, 24 hours with peptide; normal fibroblast line
# [14] = chloramphenicol + peptide at ¼ MIC
# [15] = nalidixic acid + peptide at ¼ MIC, FIC=0.25+MIC comb/MIC alone
# [16] = pH 7, hemolytic assay, concentration at 50% hemolysis, 1 hour at 37° C., read-out: LD50
substance,measurement,setting,value
FAKKLAKKLKKLAKKLAK-NH2 [P69],MIC Cm-comb.,P. aeruginosa H374,8 µg/mL
same,MIC Nal-comb.,P. aeruginosa H374,2500 µg/mL
same,FIC Index,P. aeruginosa H374; [14],0.75
same,FIC Index,P. aeruginosa H374; [15],0.75
same,FIC Index,P. aeruginosa H774,0.75
same,MIC Nal-comb.,P. aeruginosa,312 µg/mL
same,MIC 30 min treatment,Pseudomonas aeruginosa; first of two columns,20 µg/mL
same,MIC 30 min treatment,Pseudomonas aeruginosa; second of two columns,20 µg/mL
same,MIC 2 hr treatment,Pseudomonas aeruginosa; first of two columns,20 µg/mL
same,MIC 2 hr treatment,Pseudomonas aeruginosa; second of two columns,20 µg/mL
same,Solubility,"[1]; sheep serum, […], 70% serum",Precipitated
FALALKALKKALKKLKKALKKAL-NH2 [compound 2],Anti-cancer (preferred peptide),cancer cell lines,X (Preferred anticancer peptides can be selected as having LD50 values of less than or equal to about 25 μg/ml)
same,Peptide treated cell activity Percent stimulation relative to control,[2]; 0.1 ug/ml,117%
same,Peptide treated cell activity Percent stimulation relative to control,[2]; 1 ug/ml,118%
same,Peptide treated cell activity Percent stimulation relative to control,[2]; 10 ug/ml,119%
same,Peptide treated cell activity Percent stimulation relative to control,[2]; 100 ug/ml,121%
same,Peptide treated cell activity Percent stimulation relative to control,[2]; 500 ug/ml,119%
same,percent cell viability above or below control,"[3]; 0.1 μg/ml, 0% FBS",−27%
same,Peptide treated cell activity Stimulation relative to control,[3]; 0.1 μg/ml,125%
same,percent cell viability above or below control,"[3]; 0.1 μg/ml, […] FBS",26%
same,percent cell viability above or below control,"[3]; 1 μg/ml, 0% FBS",−3%
same,Peptide treated cell activity Stimulation relative to control,[3]; 1 μg/ml,156%
same,percent cell viability above or below control,"[3]; 1 μg/ml, […] FBS",57%
same,percent cell viability above or below control,"[3]; 10 μg/ml, 0% FBS",27%
same,Peptide treated cell activity Stimulation relative to control,[3]; 10 μg/ml,122%
same,percent cell viability above or below control,"[3]; 10 μg/ml, […] FBS",23%
same,percent cell viability above or below control,"[3]; 100 μg/ml, 0% FBS",−82%
same,Peptide treated cell activity Stimulation relative to control,[3]; 100 μg/ml,35%
same,percent cell viability above or below control,"[3]; 100 μg/ml, […] FBS",−66%
same,HC50 at 1 h,"in vitro [4]; pH 7, Table 26, valine substitution, read-out: Hemolysis RBC LD50",12 µg/mL
same,Peptide toxicity RBC LD/50,[5],30
same,Anti-fungal (preferred peptide),fungal,X (Preferred antifungal peptides can be selected as having MIC or MBC values of less than or equal to about 25 μg/ml)
same,CC50 at 24 h,"in vitro [6]; Peptide toxicity WI-38 LD/50, human fibroblast cells",66 µg/mL
same,CC50 at 24 h,"in vitro [6]; WI-38 LD50, Table 26, valine substitution",66 µg/mL
same,MBC E. coli A.25922,[7],25 µg/mL
same,MBC P. aerug A.27853,[8],10 µg/mL
same,MBC S. aur A.25923,[9],25 µg/mL
same,MFC Candida A.10231,[10],>50 µg/mL
VALALKALKKALKKLKKALKKAL-OH [P508],HC50 at 1 h,in vitro [4]; [16],70 µg/mL
same,MIC Cm-comb.,P. aeruginosa H374,8 µg/mL
same,MIC Nal-comb.,P. aeruginosa H374,5000 µg/mL
same,FIC Index,P. aeruginosa H374; [14],0.75
same,FIC Index,P. aeruginosa H374; [15],1.25
same,MIC 30 min treatment,Pseudomonas aeruginosa; first of two columns,40 µg/mL
same,MIC 30 min treatment,Pseudomonas aeruginosa; second of two columns,20 µg/mL
same,MIC 2 hr treatment,Pseudomonas aeruginosa; first of two columns,40 µg/mL
same,MIC 2 hr treatment,Pseudomonas aeruginosa; second of two columns,20 µg/mL
same,change of activity by exposure to serum (serum MIC against Pseudomonas aeruginosa),"Pseudomonas aeruginosa; sheep serum, […], 37° C. for 30 minutes or 2 hours",only modestly decreased
same,Solubility,"[1]; sheep serum, […], 70% serum",Soluble
same,Solubility,"[1]; sheep, 70% sheep serum",≥ 1280 µg/mL
MPRWRLFRRIDRVGKQIKQGILRAGPAIALVGDARAVG [Shiva-1],viability at 0.01 µM,[11],100%
same,viability at 0.1 µM,[11],69.6%
same,viability at 1 µM,[11],37.9%
same,viability at 5 µM,[11],1.5%
same,viability at 25 µM,[11],0%
same,viability at 0.01 µM,[12]; S. intermedius 19930,100%
same,viability at 0.1 µM,[12]; S. intermedius 19930,81.8%
same,viability at 0.5 µM,[12]; S. intermedius 19930,65%
same,viability at 1 µM,[12]; S. intermedius 19930,42.1%
same,viability at 5 µM,[12]; S. intermedius 19930,35.2%
same,viability at 10 µM,[12]; S. intermedius 19930,1.2%
same,viability at 50 µM,[12]; S. intermedius 19930,0%
same,viability at 0.01 µM,[12]; S. intermedius 20034,100%
same,viability at 0.5 µM,[12]; S. intermedius 20034,80%
same,viability at 5 µM,[12]; S. intermedius 20034,4.1%
same,viability at 50 µM,[12]; S. intermedius 20034,0%
same,viability at 0.01 µM,[13],100%
same,viability at 0.1 µM,[13],100%
same,viability at 0.5 µM,[13],50.1%
same,viability at 1 µM,[13],24.4%
same,viability at 5 µM,[13],15.9%
same,viability at 10 µM,[13],4.5%
same,viability at 50 µM,[13],1.6%
FALALKALKKLLKKLKKLAKKAL-NH2 [P24],LD50 BMKC,BMKC,85 µg/mL
same,H1299 LD50,H1299,72 µg/mL
same,HeLaS3 LD50,HeLaS3,145 µg/mL
same,LD50 MCF7,MCF7,26 µg/mL
same,PC3 LD50,PC3,38 µg/mL
same,LD50 SW480,SW480,38 µg/mL
same,HC50 at 1 h,in vitro [4]; [16],10 µg/mL
same,MIC Cm-comb.,P. aeruginosa H374,16 µg/mL
same,MIC Nal-comb.,P. aeruginosa H374,5000 µg/mL
same,FIC Index,P. aeruginosa H374; [14],1.25
same,FIC Index,P. aeruginosa H374; [15],1.25
same,FIC Index,P. aeruginosa H774,1.25
same,MIC Nal-comb.,P. aeruginosa,624 µg/mL
same,MIC 30 min treatment,Pseudomonas aeruginosa; first of two columns,40 µg/mL
same,MIC 30 min treatment,Pseudomonas aeruginosa; second of two columns,20 µg/mL
same,MIC 2 hr treatment,Pseudomonas aeruginosa; first of two columns,20 µg/mL
same,MIC 2 hr treatment,Pseudomonas aeruginosa; second of two columns,20 µg/mL
same,Solubility,"[1]; sheep serum, […], 70% serum",Precipitated
same,WI38 LD50,WI38,55 µg/mL
same,CC50 at 24 h,"in vitro [6]; LD50 WI38, WI38 normal lung fibroblast line, MTT, 24 hours with peptide",55 µg/mL
